Measured values: PMC6458983 (Cancer Chemotherapy and Pharmacology, 2019)
Where two headings read alike, the source gives them in different places. Marks after values point to notes of the source that are not given here.

Columns and labels:
[1] = Predicted gefitinib exposure (empirical Bayesian estimates), inter- and intra-patient comparison with/without ILD; type: in vivo, Japanese patients with NSCLC; conditions: human, plasma, oral, 250 mg
Description: (§1) When estimating the exposure at first dosing and at steady state, time-dependent pharmacokinetics were not assumed. Thus, both exposures at first dosing and steady state can be theoretically derived if at least one plasma concentration at either first dosing or steady state is available. Individual exposures were predicted based on patients’ dosing history, assuming steady state at 144 h after the first dosing. […] Serum concentration of AGP were likewise determined at first dosing and at steady state.
AUC0–24 and Cmax were chosen as exposure metrics.

[2] = test system: Japanese patients with NSCLC; assay: Multivariate logistic regression of ILD with gefitinib exposure and other risk factors; type: in vivo; conditions: for OR estimate (95% CI) for acute ILD: Age (≥55 vs <55 years): gefitinib-treated patients
Description: Patients with and without ILD, in whom pharmacokinetic measurements were available, were included in this analysis. […] A multivariate logistic regression model was used in this analysis; the analysis was performed using SAS version 9.3. […] In addition, the interaction of smoking history and normal lung coverage, and the interaction of the severity of pre-existing ILD and normal lung coverage were also studied. In addition, pharmacokinetic exposure parameters were divided into four quartiles (see “Results”) and investigated as risk factors. For association with ILD risk, the mid-1, mid-2, and high-exposure groups were compared with the low-exposure group.

[3] = Population pharmacokinetic analysis of gefitinib plasma concentrations (NONMEM, one-compartment model); type: in vivo, Japanese patients with NSCLC
Description: Six blood samples were taken from each patient at 1–3, 3–8, and 24 h after first treatment dosing (Day 1) and at steady state (Days 10–15). In addition, blood samples were taken from each patient with ILD, if possible, when ILD developed. […] In total, data for 1891 plasma concentrations taken from 336 patients were used for population pharmacokinetic modeling.
as §1
The population pharmacokinetic analysis was performed using the non-linear mixed-effect modeling (NONMEM) program version V level 1.1 with the PREDPP library and the NM-TRAN pre-processor (GloboMax LLC, Hanover, MD, USA). Full details of the population pharmacokinetic model development and analysis are described in the Online Resource.
The population pharmacokinetic analysis was performed using the NONMEM program version V level 1.1 with the PREDPP library and the NM-TRAN pre-processor (GloboMax LLC, Hanover, MD).
Following preliminary modeling to build a base model, log-transformed plasma concentrations were used for the analysis, and a one-compartment model after first-order absorption with lag-time was selected as the structural model. The first-order method was adopted as an approximation in integral of marginal likelihood. The inter-individual variability on pharmacokinetic parameters was described using an exponential error model, and the intra-individual variability on log-transformed plasma concentration was described using an additive error model.
The covariate model was developed based on the forward addition method and the backward deletion method. Continuous covariates such as body weight, age, sex, α1-acid glycoprotein (AGP), serum albumin, total protein, aspartate aminotransferase, alanine aminotransferase, alkaline phosphatase, total bilirubin, and creatinine clearance were tested using a power model centered on the mean value.
Categorical covariates included were age group (<65 years or ≥65 years), concomitant use of cytochrome P450 3A4 (CYP3A4) inducers, concomitant use of CYP3A4 inhibitors, and concomitant use of proton pump inhibitors and/or H2 antagonists. In addition, interstitial lung disease (ILD) status (i.e. “patients with ILD” vs “patients without ILD”) and ILD period (i.e. “at times other than ILD development” vs “at the time of ILD development”) were tested using a productive multiplicative model with the discrete variable (0 or 1).
χ^2 tests with one degree of freedom based on the objective function value (OFV) in NONMEM, which corresponds to -2-fold of log-likelihood, were used for developing the covariate model, and the adopted statistically significant levels were p=0.05 (ΔOFV=3.84) and p=0.001 (ΔOFV=10.83) when a covariate was included and excluded from the pharmacokinetic model, respectively.
Goodness-of-fit plots were used for diagnosis of the final model. The robustness of the final model was evaluated by a randomized non-stratified bootstrap technique with 200 resampling datasets, and model predictability was examined by visual predictive check.

[4] = cited from earlier work
[5] = test system: human AGP; conditions: cited from earlier work
[6] = Analysis 1 (PK parameter AUC0–24, single dose)
[7] = Analysis 1, gefitinib exposure after a single dose
[8] = Analysis 2 (PK parameter AUC0–24,ss)
[9] = Analysis 2, gefitinib exposure at steady state
[10] = Analysis 3 (PK parameter Cmax, single dose)
[11] = Analysis 3, gefitinib exposure after a single dose
[12] = Analysis 4 (PK parameter Cmax,ss)
[13] = Analysis 4, gefitinib exposure at steady state

COc1cc2ncnc(Nc3ccc(F)c(Cl)c3)c2cc1OCCCN1CCOCC1 [gefitinib]
Cmax ([1]; after the first dosing, patients with ILD, value printed in box plot Fig. 1a, read-out: Cmax): 214 ng/mL | Cmax ([1]; after the first dosing, patients without ILD, value printed in box plot Fig. 1a, read-out: Cmax): 157 ng/mL | AUC(0-t) ([1]; after the first dosing, patients with ILD, Fig. 1b, read-out: AUC0-24): 3970 ng·h/mL | AUC(0-t) ([1]; after the first dosing, patients without ILD, Fig. 1b, read-out: AUC0-24): 2990 ng·h/mL | Cmax ([1]; intra-patient (n = 19), at the time of ILD development, Fig. 2a, read-out: Cmax): 679 ng/mL | AUC(0-t) ([1]; intra-patient (n = 19), at the time of ILD development, Fig. 2b, read-out: AUC0-24): 13600 ng·h/mL | Cmax ([1]; intra-patient (n = 19), at time other than ILD development (steady state), Fig. 2a, read-out: Cmax): 517 ng/mL | AUC(0-t) ([1]; intra-patient (n = 19), at time other than ILD development (steady state), Fig. 2b, read-out: AUC0-24): 10100 ng·h/mL | Cmax ([1]; steady state, 250 mg once daily, patients without ILD, Fig. 1d, read-out: Cmax,ss): 434 ng/mL | AUC(0-t) ([1]; steady state, patients with ILD, Fig. 1e, read-out: AUC0-24,SS): 10600 ng·h/mL | Cmax ([1]; steady state, patients with ILD, Fig. 1d, read-out: Cmax,ss): 517 ng/mL | AUC(0-t) ([1]; steady state, patients without ILD, Fig. 1e, read-out: AUC0-24,SS): 8830 ng·h/mL | OR estimate (95% CI) for acute ILD: Duration of NSCLC ≥1 vs <0.5 years [2, 6]: 0.37 (0.14–0.95) | OR estimate (95% CI) for acute ILD: Interaction of pre-existing IP and normal lung coverage [2, 6]: 0.37 (0.02–6.82) | OR estimate (95% CI) for acute ILD: Interaction of smoking history and normal lung coverage [2, 6]: 0.6 (0.09–4.12) | OR estimate (95% CI) for acute ILD: Normal lung coverage (10%–50% vs 60%–100%) [2, 6]: 3.39 (0.63–18.31) | OR estimate (95% CI) for acute ILD: Pre-existing IP (yes vs no) [2, 6]: 4.01 (0.37–43.22) | OR estimate (95% CI) for acute ILD: WHO performance status 1 vs 0 [2, 6]: 0.59 (0.2–1.68) | OR estimate (95% CI) for acute ILD: WHO performance status 2–3 vs 0 [2, 6]: 1.75 (0.48–6.33) | OR estimate (95% CI) for acute ILD: Age (≥55 vs <55 years) [2, 6]: 1.86 (0.5–6.88) | OR estimate (95% CI) for acute ILD: AUC0–24 Quartile 2 vs Quartile 1 [2, 7]: 0.68 (0.2–2.32) | OR estimate (95% CI) for acute ILD: AUC0–24 Quartile 3 vs Quartile 1 [2, 7]: 0.62 (0.18–2.12) | OR estimate (95% CI) for acute ILD: AUC0–24 Quartile 4 vs Quartile 1 [2, 7]: 3.35 (1.14–9.88) | OR estimate (95% CI) for acute ILD: Duration of NSCLC ≥1 vs <0.5 years [2, 8]: 0.57 (0.19–1.69) | OR estimate (95% CI) for acute ILD: Interaction of pre-existing IP and normal lung coverage [2, 8]: 0.25 (0.01–6.8) | OR estimate (95% CI) for acute ILD: Interaction of smoking history and normal lung coverage [2, 8]: 0.14 (0.01–1.52) | OR estimate (95% CI) for acute ILD: Pre-existing IP (yes vs no) [2, 8]: 4.49 (0.33–60.44) | OR estimate (95% CI) for acute ILD: WHO performance status 1 vs 0 [2, 8]: 0.55 (0.19–1.62) | OR estimate (95% CI) for acute ILD: WHO performance status 2–3 vs 0 [2, 8]: 1.37 (0.35–5.39) | OR estimate (95% CI) for acute ILD: Age (≥55 vs <55 years) [2, 8]: 1.54 (0.36–6.6) | OR estimate (95% CI) for acute ILD: Normal lung coverage (10%–50% vs 60%–100%) ([2]; Analysis 2 (PK parameter AUC0–24,ss), p<0.05): 9.47 (1.14–78.84)* | OR estimate (95% CI) for acute ILD: AUC0–24,ss Quartile 2 vs Quartile 1 [2, 9]: 1.2 (0.27–5.32) | OR estimate (95% CI) for acute ILD: AUC0–24,ss Quartile 3 vs Quartile 1 [2, 9]: 1.71 (0.42–6.94) | OR estimate (95% CI) for acute ILD: AUC0–24,ss Quartile 4 vs Quartile 1 [2, 9]: 2.09 (0.5–8.74) | OR estimate (95% CI) for acute ILD: Duration of NSCLC ≥1 vs <0.5 years [2, 10]: 0.32 (0.12–0.83) | OR estimate (95% CI) for acute ILD: Interaction of pre-existing IP and normal lung coverage [2, 10]: 0.51 (0.03–9.56) | OR estimate (95% CI) for acute ILD: Interaction of smoking history and normal lung coverage [2, 10]: 0.56 (0.08–3.96) | OR estimate (95% CI) for acute ILD: Normal lung coverage (10%–50% vs 60%–100%) [2, 10]: 3.56 (0.64–19.85) | OR estimate (95% CI) for acute ILD: Pre-existing IP (yes vs no) [2, 10]: 3.56 (0.33–38.74) | OR estimate (95% CI) for acute ILD: WHO performance status 1 vs 0 [2, 10]: 0.62 (0.21–1.8) | OR estimate (95% CI) for acute ILD: WHO performance status 2–3 vs 0 [2, 10]: 1.89 (0.52–6.85) | OR estimate (95% CI) for acute ILD: Age (≥55 vs <55 years) [2, 10]: 2.13 (0.56–8.04) | OR estimate (95% CI) for acute ILD: Cmax Quartile 2 vs Quartile 1 [2, 11]: 0.51 (0.14–1.8) | OR estimate (95% CI) for acute ILD: Cmax Quartile 3 vs Quartile 1 [2, 11]: 0.5 (0.14–1.72) | OR estimate (95% CI) for acute ILD: Cmax Quartile 4 vs Quartile 1 [2, 11]: 3.03 (1–9.17) | OR estimate (95% CI) for acute ILD: Duration of NSCLC ≥1 vs <0.5 years [2, 12]: 0.59 (0.2–1.75) | OR estimate (95% CI) for acute ILD: Interaction of pre-existing IP and normal lung coverage [2, 12]: 0.18 (0.01–4.98) | OR estimate (95% CI) for acute ILD: Interaction of smoking history and normal lung coverage [2, 12]: 0.17 (0.02–1.89) | OR estimate (95% CI) for acute ILD: Pre-existing IP (yes vs no) [2, 12]: 5.21 (0.39–70.35) | OR estimate (95% CI) for acute ILD: WHO performance status 1 vs 0 [2, 12]: 0.57 (0.19–1.68) | OR estimate (95% CI) for acute ILD: WHO performance status 2–3 vs 0 [2, 12]: 1.34 (0.33–5.39) | OR estimate (95% CI) for acute ILD: Age (≥55 vs <55 years) [2, 12]: 1.69 (0.4–7.17) | OR estimate (95% CI) for acute ILD: Normal lung coverage (10%–50% vs 60%–100%) ([2]; Analysis 4 (PK parameter Cmax,ss), p<0.05): 9.4 (1.11–79.48)* | OR estimate (95% CI) for acute ILD: Cmax,ss Quartile 2 vs Quartile 1 [2, 13]: 0.69 (0.16–3.02) | OR estimate (95% CI) for acute ILD: Cmax,ss Quartile 3 vs Quartile 1 [2, 13]: 1.72 (0.47–6.27) | OR estimate (95% CI) for acute ILD: Cmax,ss Quartile 4 vs Quartile 1 [2, 13]: 1.07 (0.27–4.29) | decrease of CL/F ([3]; at the time of ILD development, population pharmacokinetic analysis): 25.7% | θ3 ([3]; base in CL/F equation (AGE ≥ 65 term, CL/F declined in elderly)): 0.759 | θ6 ([3]; base in CL/F equation (PERI, at the time of ILD diagnosis)): 0.743 | θ5 ([3]; exponent in CL/F equation (body weight term)): 0.503 | θ1 ([3]; typical value term of the CL/F equation (equation is drawing C00001), population estimate): 28.6 | θ7 ([3]; typical value term of the V/F equation (equation is drawing C00002), population estimate): 1540 | increase of AUC of gefitinib ([4]; gefitinib 250 mg in the presence of itraconazole): 78% | increase of AUC of gefitinib ([4]; gefitinib 500 mg in the presence of itraconazole): 61% | binding to human AGP ([5]; at 0.05 mg/mL): 83.0% | binding to human AGP ([5]; at 8 mg/mL): 68.5%
